Test results reported in patent US20020035061A1, “COMPOSITIONS AND METHODS FOR TREATING INFECTIONS USING CATIONIC PEPTIDES ALONE OR IN COMBINATION WITH ANTIBIOTICS” (priority 1996, published 2002).

What was measured:
[1] = tested on: A. calcoaceticus; format: cell-based; settings: A. calcoaceticus strain AC001
[2] = tested on: E. cloacae; format: cell-based; settings: E. cloacae strain ECL007
[3] = tested on: E. coli; format: cell-based; settings: E. coli strain ECO001
[4] = tested on: E. faecalis; format: cell-based; settings: E. faecalis strain EFS004
[5] = tested on: E. faecium; format: cell-based; settings: E. faecium strain EFM003
[6] = tested on: H. influenzae; assay: Agarose dilution assay (MIC); format: cell-based; settings: H. influenzae strain HIN002
[7] = tested on: K. pneumoniae; format: cell-based; settings: K. pneumoniae strain KP002
[8] = tested on: P. aeruginosa; format: cell-based; settings: P. aeruginosa strain PA041
[9] = tested on: P. mirabilis; assay: Agarose dilution assay (MIC); format: cell-based; settings: P. mirabilis strain PM001
[10] = tested on: S. aureus; format: cell-based; settings: S. aureus strain SA010
[11] = tested on: S. maltophilia; format: cell-based; settings: S. maltophilia strain SMA001
[12] = tested on: S. marcescens; format: cell-based; settings: S. marcescens strain SMS004
[13] = tested on: S. pneumoniae; assay: Agarose dilution assay (MIC); format: cell-based
[14] = tested on: S. pyogenes; assay: Agarose dilution assay (MIC); format: cell-based; settings: S. pyogenes strain SPY002
[15] = tested on: bacterial isolates; assay: microbe, parasite or virus in culture; format: cell-based; settings: for Peptide MIC Alone: Piperacillin section; for FIC: peptide + Piperacillin
[16] = tested on: inherently resistant microorganisms; assay: microbe, parasite or virus in culture; format: cell-based; settings: S. aureus MRSA
[17] = tested on: microorganisms with acquired resistance; assay: microbe, parasite or virus in culture; format: cell-based; settings: for Peptide MIC Alone: Piperacillin section; for FIC: peptide + Piperacillin
[18] = tested on: MSSA (Smith, ATCC # 19640); assay: In vivo efficacy, MSSA infection; design: species or system S. aureus; settings: 18 mg/kg ip, formulation D, 60 min post-infection; end of eight day observation
[19] = tested on: DoHH-2, B-cell cell lymphoma; assay: Cell death by Cytotox (Promega) lactate dehydrogenase release; format: cell-based; settings: LDH release
Procedure: (§1) In addition, APO-peptides and parent peptides are tested against a panel of cancer cell lines. Cell death is measured using the Cytotox (Promega) assay kit which measures the release of lactate dehydrogenase.
(§2) PBL, peripheral blood lymphocytes; HUVEC, human umbilical vein endothelial cells; H460,non-small lung tumor; K562, chronic myelogenous leukemia; DoHH-2, B-cell cell lymphoma; P388, lymphocytic leukemia; P388ADR, lymphocytic leukemia, multidrug resistant; MCF-7, breast carcinoma; MCF-7ADR, breast carcinoma, multidrug resistant.

[20] = tested on: H460, non-small lung tumor; assay: as above; format: cell-based; settings: LDH release
Procedure: as §1, §2

[21] = tested on: HUVEC, human umbilical vein endothelial cells; assay: as above; format: cell-based; settings: LDH release
Procedure: as §1, §2

[22] = tested on: K562, chronic myelogenous leukemia; assay: as above; format: cell-based; settings: LDH release
Procedure: as §1, §2

[23] = tested on: MCF-7, breast carcinoma; assay: as above; format: cell-based; settings: LDH release
Procedure: as §1, §2

[24] = tested on: MCF-7ADR, breast carcinoma, multidrug resistant; assay: as above; format: cell-based; settings: LDH release
Procedure: as §1, §2

[25] = tested on: P388, lymphocytic leukemia; assay: as above; format: cell-based; settings: LDH release
Procedure: as §1, §2

[26] = tested on: P388ADR, lymphocytic leukemia, multidrug resistant; assay: as above; format: cell-based; settings: LDH release
Procedure: as §1, §2

[27] = tested on: PBL, peripheral blood lymphocytes; assay: as above; format: cell-based; settings: LDH release
Procedure: as §1, §2

ILKKWPWWPWRRK [MBI 11E3CN]
32 µg/mL: MIC [7] | MIC [11] | Piperacillin MIC + Peptide ([15]; H. influenzae 1) | Piperacillin MIC + Peptide ([15]; P. aeruginosa 23) | Piperacillin MIC + Peptide ([15]; P. aeruginosa 32) | Peptide MIC Alone ([17]; A. calcoaceticus 3) | Peptide MIC + Piperacillin ([17]; P. aeruginosa 7) | Piperacillin MIC + Peptide ([17]; P. aeruginosa 23) | Peptide MIC Alone ([17]; S. maltophilia 3) | Peptide MIC Alone ([17]; S. maltophilia 4)
5.3 ± 1 µg/mL: LC50 ± S.E., MCF-7 ADR [24]
22 ± 11 µg/mL: LC50 ± S.E., PBL [27]
9 µg/mL: LC50 ± S.E., K562 [22]
0.31: FIC ([15]; H. influenzae 2) | FIC ([17]; H. influenzae 2)
0.38: FIC ([17]; H. influenzae 1)
1.00: FIC ([17]; P. aeruginosa 7)
0.52: FIC ([15]; H. influenzae 1)
0.26: FIC ([15]; S. marcescens SB1) | FIC ([17]; S. marcescens SB1)
2 µg/mL: MIC [5] | MIC [10] | Piperacillin MIC + Peptide ([15]; S. maltophilia 11) | Peptide MIC + Piperacillin ([15]; S. marcescens SB1) | Peptide MIC + Piperacillin [16] | Peptide MIC + Piperacillin ([17]; S. marcescens SB1)
0.50: FIC ([15]; S. aureus 19 MRSA)
0.75: FIC ([17]; A. calcoaceticus 3) | FIC ([17]; S. maltophilia 3) | FIC ([17]; S. maltophilia 4)
5.6 ± 2 µg/mL: LC50 ± S.E., MCF-7 [23]
7.9 ± 3 µg/mL: LC50 ± S.E., P388 ADR [26]
117 ± 7 µg/mL: LC50 ± S.E., HUVEC [21]
64 µg/mL: MIC [8] | Peptide MIC Alone ([15]; P. aeruginosa 23) | Peptide MIC Alone ([15]; P. aeruginosa 32) | Piperacillin MIC + Peptide ([15]; S. aureus 19 MRSA) | Peptide MIC + Piperacillin ([15]; S. maltophilia 11) | Peptide MIC + Piperacillin ([17]; H. influenzae 1) | Piperacillin MIC + Peptide ([17]; P. aeruginosa 7) | Peptide MIC Alone ([17]; P. aeruginosa 7) | Peptide MIC Alone ([17]; P. aeruginosa 23)
16 µg/mL: MIC [1] | MIC [14] | Peptide MIC + Piperacillin ([15]; H. influenzae 2) | Piperacillin MIC + Peptide ([15]; S. marcescens SB1) | Piperacillin MIC + Peptide ([17]; A. calcoaceticus 3) | Peptide MIC + Piperacillin ([17]; H. influenzae 2) | Peptide MIC + Piperacillin ([17]; S. maltophilia 3) | Piperacillin MIC + Peptide ([17]; S. maltophilia 3) | Peptide MIC + Piperacillin ([17]; S. maltophilia 4) | Piperacillin MIC + Peptide ([17]; S. maltophilia 4) | Piperacillin MIC + Peptide ([17]; S. marcescens SB1)
70%: % Survival [18]
13.9 ± 3 µg/mL: LC50 ± S.E., P388 [25]
18 µg/mL: LC50 ± S.E., H460 [20]
>128 µg/mL: MIC [2] | MIC [6] | MIC [9] | MIC [12] | MIC ([13]; S. pneumoniae strain SBSPN2) | MIC ([13]; S. pneumoniae strain SPN044) | Peptide MIC Alone ([15]; H. influenzae 1) | Peptide MIC Alone ([15]; H. influenzae 2) | Peptide MIC Alone ([15]; S. marcescens SB1) | Peptide MIC Alone ([17]; H. influenzae 1) | Peptide MIC Alone ([17]; H. influenzae 2) | Peptide MIC Alone ([17]; S. marcescens SB1)
0.51: FIC ([15]; S. maltophilia 11) | FIC ([16]; peptide + Piperacillin)
128 µg/mL: Peptide MIC Alone ([15]; S. maltophilia 11)
0.63: FIC ([15]; P. aeruginosa 32)
4 µg/mL: MIC [3] | Peptide MIC + Piperacillin ([15]; H. influenzae 1) | Peptide MIC Alone ([15]; S. aureus 19 MRSA) | Peptide MIC Alone ([16]; Piperacillin section)
3.6 µg/mL: LC50 ± S.E., DoHH-2 [19]
1 µg/mL: Peptide MIC + Piperacillin ([15]; P. aeruginosa 23) | Peptide MIC + Piperacillin ([15]; S. aureus 19 MRSA) | Peptide MIC + Piperacillin ([17]; P. aeruginosa 23)
8 µg/mL: MIC [4] | Piperacillin MIC + Peptide ([15]; H. influenzae 2) | Peptide MIC + Piperacillin ([15]; P. aeruginosa 32) | Peptide MIC + Piperacillin ([17]; A. calcoaceticus 3) | Piperacillin MIC + Peptide ([17]; H. influenzae 1) | Piperacillin MIC + Peptide ([17]; H. influenzae 2)
0.27: FIC ([15]; P. aeruginosa 23) | FIC ([17]; P. aeruginosa 23)
